Experimental data reported in patent US20230339937A1, “CONDENSED RING COMPOUNDS THAT INHIBIT H-PGDS” (SATO PHARMACEUTICAL CO., LTD., priority 2020, published 2023).

Target: T1, Recombinant human H-PGDS (Homo sapiens, UniProt O60760)
T1 construct: made in house; host or cells: E. coli
Assay: H-PGDS inhibitory activity (prostaglandin D2 production from prostaglandin H2, measured by LC-MS/MS)
Type: biochemical
Settings: recombinant human H-PGDS 1.0 nM expressed in E. coli; prostaglandin H2 25 μM; preincubated 15 minutes on ice, reacted on ice for 1 minute; concentration that inhibits prostaglandin D2 production by 50%
Outline: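 PGD2 formed from 25 µM prostaglandin H2 during a 1-min on-ice reaction was measured by LC-MS/MS after an FeCl2/citric acid stop. The enzyme was 1.0 nM E. coli-expressed human H-PGDS in Tris-HCl pH 8.0 buffer with MgCl2, reduced glutathione and γ-globulin, preincubated with compound for 15 min on ice. Production was normalised to DMSO controls minus the no-enzyme background.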

T1 sequence (O60760 whole entry): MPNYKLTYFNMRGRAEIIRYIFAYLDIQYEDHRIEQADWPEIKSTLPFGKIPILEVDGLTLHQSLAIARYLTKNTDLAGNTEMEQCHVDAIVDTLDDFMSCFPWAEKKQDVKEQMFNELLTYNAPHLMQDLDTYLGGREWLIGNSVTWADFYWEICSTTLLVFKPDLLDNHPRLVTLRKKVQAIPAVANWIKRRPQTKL

SMILES: COC(=O)c1ccnc(N2CCC(NC(=O)c3ccc(-c4nccc5occc45)cc3)CC2)n1 [Example 167, Methyl 2-{4-[4-(furo[3,2-c]pyridin-4-yl)benzamide]piperidin-1-yl}pyrimidine-4-carboxylate]
- IC50: 1.2 nM

SMILES: COc1cnc(N2CCC(NC(=O)c3ccc(-c4nccc5occc45)cc3)CC2)nc1 [Example 168, 4-(furo[3,2-c]pyridin-4-yl)-N-[1-(5-methoxypyrimidin-2-yl)piperidin-4-yl]benzamide]
- IC50: 1.7 nM

SMILES: O=C(NC1CCN(c2ccc(CO)cn2)CC1)c1ccc(-c2nccc3occc23)cc1 [Example 169, 4-(furo[3,2-c]pyridin-4-yl)-N-{1-[5-(hydroxymethyl)pyridin-2-yl]piperidin-4-yl}benzamide]
- IC50: 3 nM

SMILES: O=C(NC1CCN(c2cnc(CO)cn2)CC1)c1ccc(-c2nccc3occc23)cc1 [Example 170, 4-(furo[3,2-c]pyridin-4-yl)-N-{1-[5-(hydroxymethyl)pyrazin-2-yl]piperidin-4-yl}benzamide]
- IC50: 6.2 nM

SMILES: O=C(NC1CCN(c2ccncn2)CC1)c1ccc(-c2nccc3occc23)cc1 [Example 171, 4-(furo[3,2-c]pyridin-4-yl)-N-[1-(pyrimidin-4-yl)piperidin-4-yl]benzamide]
- IC50: 1.9 nM

SMILES: O=C(NC1CCN(c2cccc(=O)[nH]2)CC1)c1ccc(-c2nccc3occc23)cc1 [Example 172, 4-(furo[3,2-c]pyridin-4-yl)-N-[1-(6-oxo-1,6-dihydropyridin-2-yl)piperidin-4-yl]benzamide]
- IC50: 2.6 nM

SMILES: N#Cc1cnc(N2CCC(NC(=O)c3ccc(-c4nccc5occc45)cc3)CC2)nc1 [Example 173, N-[1-(5-cyanopyrimidin-2-yl)piperidin-4-yl]-4-(furo[3,2-c]pyridin-4-yl)benzamide]
- IC50: 0.83 nM

SMILES: NC(=O)c1cnc(N2CCC(NC(=O)c3ccc(-c4nccc5occc45)cc3)CC2)nc1 [Example 174, 2-{4-[4-(furo[3,2-c]pyridin-4-yl)benzamide]piperidin-1-yl}pyrimidine-5-carboxamide]
- IC50: 1.1 nM

SMILES: NC(=O)c1ccnc(N2CCC(NC(=O)c3ccc(-c4nccc5occc45)cc3)CC2)n1 [Example 175, 2-{4-[4-(furo[3,2-c]pyridin-4-yl)benzamide]piperidin-1-yl}pyrimidine-4-carboxamide]
- IC50: 1.3 nM

SMILES: NC(=O)c1cc(N2CCC(NC(=O)c3ccc(-c4nccc5occc45)cc3)CC2)ccn1 [Example 176, 4-{4-[4-(furo[3,2-c]pyridin-4-yl)benzamide]piperidin-1-yl}picolinamide]
- IC50: 1.2 nM

SMILES: NS(=O)(=O)c1cnc(N2CCC(NC(=O)c3ccc(-c4nccc5occc45)cc3)CC2)nc1 [Example 177, 4-(furo[3,2-c]pyridin-4-yl)-N-[1-(5-sulfamoylpyrimidin-2-yl)piperidin-4-yl]benzamide]
- IC50: 1.2 nM

SMILES: O=C(NC1CCN(c2nccc(N3CCC3)n2)CC1)c1ccc(-c2nccc3occc23)cc1 [Example 178, N-{1-[4-(azetidin-1-yl)pyrimidin-2-yl]piperidin-4-yl}-4-(furo[3,2-c]pyridin-4-yl)benzamide]
- IC50: 1.9 nM

SMILES: O=C(NC1CCN(c2nccc(=O)[nH]2)CC1)c1ccc(-c2nccc3occc23)cc1 [Example 179, 4-(furo[3,2-c]pyridin-4-yl)-N-[1-(6-oxo-1,6-dihydropyrimidin-2-yl)piperidin-4-yl]benzamide]
- IC50: 0.97 nM

SMILES: O=C(NC1CCN(CC(F)(F)F)CC1)c1ccc(-c2nccc3occc23)cc1 [Example 180, 4-(furo[3,2-c]pyridin-4-yl)-N-[1-(2,2,2-trifluoroethyl)piperidin-4-yl]benzamide]
- IC50: 0.96 nM

SMILES: Cc1cc(=O)[nH]c(N2CCC(NC(=O)c3ccc(-c4nccc5occc45)cc3)CC2)n1 [Example 181, 4-(furo[3,2-c]pyridin-4-yl)-N-[1-(4-methyl-6-oxo-1,6-dihydropyrimidin-2-yl)piperidin-4-yl]benzamide]
- IC50: 1.2 nM

SMILES: O=C(NC1CCN(c2ncc(Br)c(=O)[nH]2)CC1)c1ccc(-c2nccc3occc23)cc1 [Example 182, N-[1-(5-bromo-6-oxo-1,6-dihydropyrimidin-2-yl)piperidin-4-yl]-4-(furo[3,2-c]pyridin-4-yl)benzamide]
- IC50: 2.3 nM

SMILES: Cn1c(N2CCC(NC(=O)c3ccc(-c4nccc5occc45)cc3)CC2)nccc1=O [Example 183, 4-(furo[3,2-c]pyridin-4-yl)-N-[1-(1-methyl-6-oxo-1,6-dihydropyrimidin-2-yl)piperidin-4-yl]benzamide]
- IC50: 1.7 nM

SMILES: Cn1c(N2CCC(NC(=O)c3ccc(-c4nccc5occc45)cc3)CC2)cccc1=O [Example 184, 4-(furo[3,2-c]pyridin-4-yl)-N-[1-(1-methyl-6-oxo-1,6-dihydropyridin-2-yl)piperidin-4-yl]benzamide]
- IC50: 2.1 nM

SMILES: CC(C)(O)c1cnc(N2CCC(NC(=O)c3ccc(-c4nccc5occc45)cc3)CC2)nc1 [Example 185, 4-(furo[3,2-c]pyridin-4-yl)-N-{1-[5-(2-hydroxypropan-2-yl)pyrimidin-2-yl]piperidin-4-yl}benzamide]
- IC50: 1.7 nM

SMILES: CC(=O)N1CCC(NC(=O)c2ccc(-c3nccc4occc34)cc2)CC1 [Example 186, N-(1-acetylpiperidin-4-yl)-4-(furo[3,2-c]pyridin-4-yl)benzamide]
- IC50: 2.3 nM

SMILES: O=C(NC1CCN(c2nccc(CO)n2)CC1)c1ccc(-c2nccc3occc23)cc1 [Example 187, 4-(furo[3,2-c]pyridin-4-yl)-N-{1-[4-(hydroxymethyl)pyrimidin-2-yl]piperidin-4-yl}benzamide]
- IC50: 0.8 nM

SMILES: CC(=O)N(C(C)=O)c1cnc(N2CCC(NC(=O)c3ccc(-c4nccc5occc45)cc3)CC2)nc1 [Example 188, N-{1-[5-(N-acetylacetamide)pyrimidin-2-yl]piperidin-4-yl}-4-(furo[3,2-c]pyridin-4-yl)benzamide]
- IC50: 4.3 nM

SMILES: CC(=O)Nc1cnc(N2CCC(NC(=O)c3ccc(-c4nccc5occc45)cc3)CC2)nc1 [Example 189, N-[1-(5-acetamidopyrimidin-2-yl)piperidin-4-yl]-4-(furo[3,2-c]pyridin-4-yl)benzamide]
- IC50: 2.3 nM

SMILES: O=C(NC1CCN(c2cccnn2)CC1)c1ccc(-c2nccc3occc23)cc1 [Example 190, 4-(furo[3,2-c]pyridin-4-yl)-N-[1-(pyridazin-3-yl)piperidin-4-yl]benzamide]
- IC50: 0.76 nM

SMILES: O=C(N[C@H]1CCN(c2ncccn2)C1)c1ccc(-c2nccc3occc23)cc1 [Example 191, (S)-4-(furo[3,2-c]pyridin-4-yl)-N-[1-(pyrimidin-2-yl)pyrrolidin-3-yl]benzamide]
- IC50: 0.63 nM

SMILES: O=C(N[C@@H]1CCN(c2ncccn2)C1)c1ccc(-c2nccc3occc23)cc1 [Example 192, (R)-4-(furo[3,2-c]pyridin-4-yl)-N-[1-(pyrimidin-2-yl)pyrrolidin-3-yl]benzamide]
- IC50: 7.7 nM

SMILES: O=C(N[C@H]1CCN(c2ncc(CO)cn2)C1)c1ccc(-c2nccc3occc23)cc1 [Example 193, (S)-4-(furo[3,2-c]pyridin-4-yl)-N-{1-[5-(hydroxymethyl)pyrimidin-2-yl]pyrrolidin-3-yl}benzamide]
- IC50: 1 nM

SMILES: O=C(N[C@H]1CCN(c2ncc(F)cn2)C1)c1ccc(-c2nccc3occc23)cc1 [Example 194, (S)-N-[1-(5-fluoropyrimidin-2-yl)pyrrolidin-3-yl]-4-(furo[3,2-c]pyridin-4-yl)benzamide]
- IC50: 0.94 nM

SMILES: O=C(N[C@H]1CCN(c2ccnc(Cl)c2)C1)c1ccc(-c2nccc3occc23)cc1 [Example 195, (S)-N-[1-(2-chloropyridin-4-yl)pyrrolidin-3-yl]-4-(furo[3,2-c]pyridin-4-yl)benzamide]
- IC50: 1.7 nM

SMILES: O=C(N[C@H]1CCN(c2ccnc(F)c2)C1)c1ccc(-c2nccc3occc23)cc1 [Example 196, (S)-N-[1-(2-fluoropyridin-4-yl)pyrrolidin-3-yl]-4-(furo[3,2-c]pyridin-4-yl)benzamide]
- IC50: 1.5 nM

SMILES: O=C(N[C@H]1CCN(c2ccc(CO)cn2)C1)c1ccc(-c2nccc3occc23)cc1 [Example 197, (S)-4-(furo[3,2-c]pyridin-4-yl)-N-{1-[5-(hydroxymethyl)pyridin-2-yl]pyrrolidin-3-yl}benzamide]
- IC50: 6.1 nM

SMILES: O=C(N[C@H]1CCN(c2cnc(CO)cn2)C1)c1ccc(-c2nccc3occc23)cc1 [Example 198, (S)-4-(furo[3,2-c]pyridin-4-yl)-N-{1-[5-(hydroxymethyl)pyrazin-2-yl]pyrrolidin-3-yl}benzamide]
- IC50: 2.3 nM

SMILES: O=C(N[C@H]1CCN(CC(F)(F)F)C1)c1ccc(-c2nccc3occc23)cc1 [Example 199, (S)-4-(furo[3,2-c]pyridin-4-yl)-N-[1-(2,2,2-trifluoroethyl)pyrrolidin-3-yl]benzamide]
- IC50: 9.7 nM

SMILES: CC(C)(O)c1cnc(N2CC[C@H](NC(=O)c3ccc(-c4nccc5occc45)cc3)C2)nc1 [Example 200, (S)-4-(furo[3,2-c]pyridin-4-yl)-N-{1-[5-(2-hydroxypropan-2-yl)pyrimidin-2-yl]pyrrolidin-3-yl}benzamide]
- IC50: 1.1 nM

SMILES: N#Cc1cnc(N2CC[C@H](NC(=O)c3ccc(-c4nccc5occc45)cc3)C2)nc1 [Example 201, (S)—N-[1-(5-cyanopyrimidin-2-yl)pyrrolidin-3-yl]-4-(furo[3,2-c]pyridin-4-yl)benzamide]
- IC50: 1.2 nM

SMILES: NC(=O)c1cnc(N2CC[C@H](NC(=O)c3ccc(-c4nccc5occc45)cc3)C2)nc1 [Example 202, (S)-2-(3-[4-(furo[3,2-c]pyridin-4-yl)benzamide]pyrrolidin-1-yl)pyrimidine-5-carboxamide]
- IC50: 1.5 nM

SMILES: O=C(N[C@@H]1CN(c2ncc(CO)cn2)C[C@H]1F)c1ccc(-c2nccc3occc23)cc1 [Example 203, N-{(3R,4R)-4-fluoro-1-[5-(hydroxymethyl)pyrimidin-2-yl]pyrrolidin-3-yl}-4-(furo[3,2-c]pyridin-4-yl)benzamide]
- IC50: 1.9 nM
